One data set in a line: in vivo. To be noted: mouse, plasma, pH 2.3.
The target of another data set is LCK tyrosine kinase (Homo sapiens, UniProt P06239, C224D/P223M). As to the kind of experiment: LCK spectrophotometric assay. The format is biochemical. The conditions noted are these: Table 1, compound concentration 1 µM; for inhibition at 1 µM: read-out: Lck-P* (% inhibition); for Lck-P* (% inhibition): 1 µM. How it is done:
The spectrophotometric assay was carried out as described above for VEGF-R2, except for the following changes in concentration: LCK = 60 nM, MgCl2 = 0 mM, poly(E4Y1) = 20 mM.

Data set [1] concerns human umbilical vein endothelial cells (HUVEC). The data set is described as follows: HUVEC proliferation assay (VEGF-stimulated, MTT). Format: cell-based. The conditions noted are these: Homo sapiens, HUVEC, Table 1.
A further data set is described as follows: in vitro. The format is in vitro ADME, human. The conditions noted are these: human liver microsomes, 5 µM test compound, 37 °C, 2 h; for remaining at 2 h, 5 µM: read-out: % remain (HLM, 2 h). An outline of the steps: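 HLM diluted to 5 mg/mL in 100 mM KPO4, preincubated 10 min at 37 °C with NADPH-regenerating system. Compound (5 µM final) incubated at 37 °C in triplicate, sampled at 0 and 2 h into ice-cold acetonitrile, then LC-MS analysis.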
A general note: Liver microsomes are vesicles of endoplasmic reticulum, rich in cytochrome P450 enzymes.

A further data set addresses human FGF-R1 (Homo sapiens, UniProt P11362, C488A/C584S/L457V). The data set is described as follows: FGF-R spectrophotometric assay. Format: biochemical. The conditions noted are these: Table 1, compound concentration 1 µM; for inhibition at 1 µM: read-out: FGF-P* (% inhibition); for FGF-P* (% inhibition): 1 µM. How it is done:
The spectrophotometric assay was carried out as described above for VEGF-R2, except for the following changes in concentration: FGF-R = 50 nM, ATP = 2 mM, and poly(E4Y1) =15 mM.

Data set [2] addresses unphosphorylated VEGF-R2Δ50 (Homo sapiens, UniProt P35968, DEL940-989/E990V). The data set is described as follows: biochemical. The conditions noted are these: for inhibition at 0.05 µM: read-out: FLVK ** (% inhibition).
Setting [3] is: + albumin, read-out: HUVEC + albumin IC50.
[4] abbreviates: PO, 25 mg/kg, vehicle PEG400:H2O pH 2.3 30:70.
Setting [5] is: PO, 50 mg/kg, vehicle PEG400:H2O pH 2.3 30:70.
Where [6] appears, read: IP, 25 mg/kg, vehicle PEG400:H2O pH 2.3 30:70.

The values below come from patent EP1614683B1, “Indazole compounds and pharmaceutical compositions for inhibiting protein kinases, and methods for their use” (priority 1999, dated 2001).

“And” between values parts separate entries of the source, which are not always exact repeats. Equal values may be shown once. Read-outs that look alike come from different tables or passages of the source. Marks after values point to notes of the source that are not given here.

LCK tyrosine kinase, sequence (P06239 223-509 P223M/C224D): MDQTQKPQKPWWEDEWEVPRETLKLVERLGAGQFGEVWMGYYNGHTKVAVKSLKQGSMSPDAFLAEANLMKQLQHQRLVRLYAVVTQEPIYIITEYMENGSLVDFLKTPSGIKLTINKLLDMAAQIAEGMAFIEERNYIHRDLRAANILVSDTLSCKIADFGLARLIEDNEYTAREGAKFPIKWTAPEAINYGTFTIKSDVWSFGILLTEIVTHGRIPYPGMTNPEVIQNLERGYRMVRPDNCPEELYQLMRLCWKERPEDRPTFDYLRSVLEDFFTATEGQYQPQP
unphosphorylated VEGF-R2Δ50, sequence (P35968 with tags, fused parts or gaps DEL940-989/E990V limits assumed): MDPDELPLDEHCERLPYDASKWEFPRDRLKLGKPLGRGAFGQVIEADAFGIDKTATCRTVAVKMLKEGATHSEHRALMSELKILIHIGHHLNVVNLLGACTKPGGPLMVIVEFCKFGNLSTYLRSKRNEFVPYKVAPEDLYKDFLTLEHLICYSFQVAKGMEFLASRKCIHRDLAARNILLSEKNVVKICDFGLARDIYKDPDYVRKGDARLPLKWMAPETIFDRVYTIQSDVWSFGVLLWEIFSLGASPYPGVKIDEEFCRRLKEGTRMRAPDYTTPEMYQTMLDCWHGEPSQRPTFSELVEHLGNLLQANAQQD
human FGF-R1, sequence (P11362 456-766 L457V/C488A/C584S): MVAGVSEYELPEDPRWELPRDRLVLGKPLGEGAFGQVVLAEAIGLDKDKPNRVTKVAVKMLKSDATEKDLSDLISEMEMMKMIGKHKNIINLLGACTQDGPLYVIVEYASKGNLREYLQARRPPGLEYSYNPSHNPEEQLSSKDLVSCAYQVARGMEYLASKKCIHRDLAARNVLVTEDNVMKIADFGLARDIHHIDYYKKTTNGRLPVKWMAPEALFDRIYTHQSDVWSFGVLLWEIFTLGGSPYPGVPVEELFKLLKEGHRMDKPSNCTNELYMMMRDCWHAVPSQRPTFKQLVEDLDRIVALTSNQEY

`O=C(Nc1cccc(C(=O)c2ccc3c(/C=C/c4ccccc4)n[nH]c3c2)c1)c1ccncc1` [19(j), 6-[3-(pyridin-4-ylcarboxamido)benzoyl]-3-E-styryl-1H-indazole]: the exposure (AUC) in “in vivo” (ip, 25 mg/kg) amounted to 23.2 µg·h/mL; in “in vivo” (po, 50 mg/kg), 5.89 µg·h/mL. In addition, the inhibition at 1 µM was 23% at LCK tyrosine kinase and 44% on human FGF-R1. Moreover, the IC50 in data set [1] (setting [3]) was 50 nM; in data set [1] (read-out: HUVEC IC50), 2.2 nM. Moreover, the remaining at 2 h, 5 µM in the data set “in vitro” stood at 66%. Also, the T1/2 reads like this: (IP, 25 mg/kg, vehicle PEG400:H2O pH 2.3 60:40) 1.6 h; (PO, 50 mg/kg, vehicle PEG400:H2O pH 2.3 60:40) 1.2 h.
In the data set “in vivo” (po, 25 mg/kg), `O=C(NNc1ccccn1)c1ccccc1Sc1ccc2c(/C=C/c3ccccn3)n[nH]c2c1` [35 (n)] yielded an AUC of 4.82 µg·h/mL. Besides, the T1/2 under setting [4] was 1.4 h.
For the compound `CN(O)C(=O)c1ccccc1Sc1ccc2c(/C=C/c3ccccn3)n[nH]c2c1` [35 (o)], the exposure (AUC) in the data set “in vivo” (po, 25 mg/kg) turned out to be 0.683 µg·h/mL. Under setting [4], the “Cmin (7 hr conc.)” value worked out at 3 ng/mL and the T1/2 is 1.0 h.
In the case of `COc1cccc(C(=O)Nc2cccc(C(=O)c3ccc4c(/C=C/c5ccccn5)n[nH]c4c3)c2)c1` [41 (bb)], in the data set “in vivo” (po, 50 mg/kg), the exposure (AUC) is 2.18 µg·h/mL. For the same compound, under setting [5], the T1/2 is 2.0 h.
For `CC(=O)Nc1cc(C(=O)c2ccc3c(/C=C/c4ccccn4)n[nH]c3c2)ccc1C` [41 (gg)], in “in vivo” (po, 25 mg/kg), the AUC came to 2.69 µg·h/mL. Moreover, the T1/2 under setting [4] worked out at 1.1 h.
Take `Cc1cc(C(=O)Nc2cc(C(=O)c3ccc4c(/C=C/c5ccccn5)n[nH]c4c3)ccc2C)n(C)n1` [41 (hh)]: in “in vivo” (po, 25 mg/kg), the AUC was found to be 5.6 µg·h/mL and the half-life is 7.9 h.
In the same order, the values of `Cc1cc(C(=O)Nc2cc(C(=O)c3ccc4c(/C=C/c5ccccn5)n[nH]c4c3)c(C)cc2C)n(C)n1` [41 (mm)] are 2.26 µg·h/mL and 2.5 h.
In the case of `Cn1nc(C(C)(C)C)cc1C(=O)Nc1cccc(C(=O)c2ccc3c(/C=C/c4ccccn4)n[nH]c3c2)c1` [41 (n)], the exposure (AUC) was 9.41 µg·h/mL in the data set “in vivo” (ip, 25 mg/kg) and 9.07 µg·h/mL in the data set “in vivo” (po, 50 mg/kg). For the same compound, the T1/2 runs as follows: under setting [6], 3.2 h; under setting [5], 1.9 h.
In “in vivo” (ip, 25 mg/kg), `Cc1cc(C(=O)Nc2cccc(C(=O)c3ccc4c(/C=C/c5ccccn5)n[nH]c4c3)c2)cc(Cl)n1` [41 (q)] had an AUC above 27 µg·h/mL. The T1/2 under setting [4] was found to be 5.2 h.
In the case of `C=CCn1nc(C)cc1C(=O)Nc1cccc(C(=O)c2ccc3c(/C=C/c4ccccn4)n[nH]c3c2)c1` [41 (t)], the area under the curve (AUC) in the data set “in vivo” (po, 25 mg/kg) is above 22.5 µg·h/mL. For the same compound, the T1/2 under setting [4] was determined as 4.0 h.
In the same order, the values of `COc1cc(C(=O)Nc2cccc(C(=O)c3ccc4c(/C=C/c5ccccn5)n[nH]c4c3)c2)cc(Cl)n1` [41 (u)] are 0.875 µg·h/mL and 5.6 h.
In the same order, the values of `Cc1cc(C(=O)Nc2cccc(C(=O)c3ccc4c(/C=C/c5ccccn5)n[nH]c4c3)c2)n(C(C)C)n1` [41 (x)] are 24.2 µg·h/mL and 4.2 h.
`CCn1nc(C)cc1C(=O)Nc1cccc(Oc2ccc3c(/C=C/c4cn(C)c(C)n4)n[nH]c3c2)c1` [Reference Example 31(f), 6-[3-((1-Ethyl-3-methyl-1H-pyrazol-5-yl)carboxamido)phenoxy]-3-E-[2-(1,2-dimethyl-1H-imidazol-4-yl)ethenyl]-1H-indazole]: the exposure (AUC) in the data set “in vivo” (po, 25 mg/kg) was above 245 µg·h/mL. Further, the figures for the inhibition at 1 µM on LCK tyrosine kinase and on human FGF-R1 were 62% and 99%, respectively. In data set [1] (setting [3]), the IC50 was above 10 nM. For the same compound, the inhibition at 0.05 µM in data set [2] turned out to be 97%. The compound further gave a T1/2 under setting [4] of 2.6 h.
In “in vivo” (po, 25 mg/kg), `CCn1nc(C)cc1C(=O)Nc1cccc(Oc2ccc3c(/C=C/c4c[nH]cn4)n[nH]c3c2)c1` [Reference Example 32(b), 6-[3-((1-Ethyl-3-methyl-1H-pyrazol-5-yl)carboxamido)phenoxy]-3-E-[2-(1H-imidazol-4-yl)ethenyl]-1H-indazole] displayed an area under the curve (AUC) of 0.49 µg·h/mL. Further, the inhibition at 1 µM was found to be 70% at LCK tyrosine kinase and 95% at human FGF-R1. In data set [1] (setting [3]), the IC50 is 21 nM. Besides, the T1/2 under setting [4] stood at 2.1 h.
In the same order, the values of `CCn1nc(C)cc1C(=O)Nc1cccc(Oc2ccc3c(/C=C/c4c[nH]c(C)n4)n[nH]c3c2)c1` [Reference Example 32(c), 6-[3-((1-Ethyl-3-methyl-1H-pyrazol-5-yl)carboxamido)phenoxy]-3-E-[2-(2-methylimidazol-4-yl)ethenyl]-1H-indazole] are 0.388 µg·h/mL, 52%, 96%, above 30 nM and 2.4 h.
Turning to `O=C(Nc1ccccc1)c1ccccc1Sc1ccc2c(/C=C/c3ccccn3)n[nH]c2c1` [Reference Example 33(c), 6-[2-(phenylcarbamoyl)phenylsulfanyl]-3-E-[2-(pyrldin-2-yl)ethenyl]-1H-indazole], the area under the curve (AUC) in “in vivo” (ip, 25 mg/kg) was 0.697 µg·h/mL; in the data set “in vivo” (po, 50 mg/kg), 0.183 µg·h/mL. In addition, the figures for the inhibition at 1 µM at LCK tyrosine kinase and on human FGF-R1 were 26% and 76%, respectively. For the same compound, the IC50 in data set [1] (setting [3]) is 6.6 nM. In “in vitro”, the “% remain (HLM, 2 h)” value was 16%. The “Cmin (7 hr conc.)” value is 7 ng/mL under setting [6] and 5 ng/mL under setting [5]. The T1/2 stood at 1.2 h under setting [6] and 3.0 h under setting [5].
Take `CC(C)=CC(=O)Nc1cccc(C(=O)c2ccc3c(/C=C/c4ccccn4)n[nH]c3c2)c1` [Reference Example 41(dd), 6-[3-(3,3-dimethylacrylamido)benzoyl]-3-E-[2-(pyridin-2-yl)ethenyl]-1H-indazole]: the inhibition at 1 µM at LCK tyrosine kinase was determined as 50%; on human FGF-R1, 69%. The IC50 in data set [1] (setting [3]) was 5.8 nM. In addition, the inhibition at 0.05 µM in data set [2] was 98%. The “% remain (HLM, 2 h)” value in “in vitro” was found to be 7%.
Consider `Cc1cc(C(=O)Nc2cccc(C(=O)c3ccc4c(/C=C/c5ccccn5)n[nH]c4c3)c2)nn1C` [Reference Example 41(i), 6-[3-((1,5-dimethyl-1H-pyrazol-3-yl)carboxamido)benzoyl]-3-E-[2-(pyridin-2-yl)ethenyl]-1H-indazole], for which the “Lck-P* (% inhibition)” value at LCK tyrosine kinase was 16%; at LCK tyrosine kinase (listed as 41(I)), 63%* and 38%*. Besides, in data set [1] (read-out: HUVEC IC50), the IC50 was 0.25 nM. In addition, the Ki in data set [2] (FLVK ** (Ki), Table 1) was 0.24 nM and 0.04 nM. In addition, in data set [2], the inhibition at 0.05 µM was 98%. In addition, the remaining at 2 h, 5 µM in the data set “in vitro” was 48%. For the same compound, the “FGF-P* (% inhibition)” value is 41% at human FGF-R1; 66% and 76% at human FGF-R1 (listed as 41(I)).
As for `Cc1cc(C(=O)Nc2cc(C(=O)c3ccc4c(/C=C/c5ccccn5)n[nH]c4c3)ccc2C)n(C(C)C)n1` [Reference Example 41(kk), 6-[3-((1-Isopropyl-3-methyl-1H-pyrazol-5-yl)carboxamido)-4-methylbenzoyl]-3-E-[2-(pyridin-2-yl)ethenyl]-1H-indazole], the values for the inhibition at 1 µM at LCK tyrosine kinase and at human FGF-R1 were 26% and 97%, respectively. Further, the IC50 in data set [1] (setting [3]) was 16 nM. The inhibition at 0.05 µM in data set [2] turned out to be 100%. The “% remain (HLM, 2 h)” value in “in vitro” was 63%.
Turning to `O=C(c1cccc(NC(=O)c2ccc(Cl)s2)c1)c1ccc2c(/C=C/c3ccccn3)n[nH]c2c1` [Reference Example 41(o), 6-[3-((5-chlorothien-2-yl)carboxamido)benzoyl]-3-E-[2-(pyridin-2-yl)ethenyl]-1H-indazole], the exposure (AUC) in the data set “in vivo” (ip, 25 mg/kg) was above 33.8 µg·h/mL. For the same compound, the inhibition at 1 µM was found to be 77% at LCK tyrosine kinase and 74% at human FGF-R1. In addition, in data set [1] (setting [3]), the concentration for half-maximal inhibition (IC50) turned out to be 10 nM. The “% remain (HLM, 2 h)” value in the data set “in vitro” amounted to 94%.

The term AUC denotes the area under the concentration-time curve, a measure of exposure. High values mean more exposure, low ones less exposure. In general, inhibition refers to the share of the control response that was lost under treatment. Usually IC50 stands for the midpoint of a concentration-inhibition curve. The half-life is the time needed for the level to fall by half in the phase considered. In general, Ki refers to the equilibrium dissociation constant of an inhibitor or competing ligand from its target. Read a low Ki as a stronger hold on the target.
